Laboratory results published in paper PMC2922490 (Bioorganic & medicinal chemistry letters, 2010).

Tests used:
[1] = assay type: in vitro ADME; details: rat protein binding
[2] = assay type: in vitro ADME; details: rat microsomes, incubation period of 60 min
[3] = assay type: in vitro ADME; details: human protein binding
hmGlu4 = hmGlu4 (Homo sapiens, UniProt Q14833)
[4] = assay type: in vitro ADME; details: human microsomes, incubation period of 60 min

Sequence of hmGlu4 (Q14833 33-912): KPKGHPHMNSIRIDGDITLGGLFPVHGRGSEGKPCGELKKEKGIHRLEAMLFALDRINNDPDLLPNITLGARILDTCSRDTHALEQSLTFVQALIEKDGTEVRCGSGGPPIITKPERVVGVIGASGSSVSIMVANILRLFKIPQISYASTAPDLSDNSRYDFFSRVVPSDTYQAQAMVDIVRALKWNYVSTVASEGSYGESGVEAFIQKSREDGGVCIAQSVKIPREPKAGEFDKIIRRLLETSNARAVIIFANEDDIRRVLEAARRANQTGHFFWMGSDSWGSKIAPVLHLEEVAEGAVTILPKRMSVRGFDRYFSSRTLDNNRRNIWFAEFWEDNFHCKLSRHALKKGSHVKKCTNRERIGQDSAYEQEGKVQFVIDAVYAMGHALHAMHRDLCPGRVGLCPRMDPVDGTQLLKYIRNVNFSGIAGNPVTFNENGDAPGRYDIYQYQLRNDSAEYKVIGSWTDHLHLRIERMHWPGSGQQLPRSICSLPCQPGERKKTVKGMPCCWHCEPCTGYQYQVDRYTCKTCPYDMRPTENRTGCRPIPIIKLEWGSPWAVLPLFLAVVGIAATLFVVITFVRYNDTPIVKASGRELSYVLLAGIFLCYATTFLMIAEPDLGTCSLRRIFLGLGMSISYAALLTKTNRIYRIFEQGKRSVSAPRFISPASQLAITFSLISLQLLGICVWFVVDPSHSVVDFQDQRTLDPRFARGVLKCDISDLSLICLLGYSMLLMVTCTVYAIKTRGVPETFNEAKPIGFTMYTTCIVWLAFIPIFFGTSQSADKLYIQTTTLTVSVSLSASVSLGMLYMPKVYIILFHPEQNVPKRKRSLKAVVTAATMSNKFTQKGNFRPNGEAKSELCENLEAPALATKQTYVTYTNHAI

Structure (SMILES) | PPB (r) (% free) [1] | RLM (% remaining) [2] | PPB (h) (% free) [3] | increase in potency relative to 4 (hmGlu4; 2-furyl amide of 4 changed to 2-pyridyl amide) | receptor activation in the absence of glutamate (hmGlu4; mGlu4/Gqi5 CHO cells, absence of an EC20 concentration of glutamate) | HLM (% remaining) [4] | loss of potency (hmGlu4; relative to the parent compound (13 vs 11; N-Me vs NH sulfonamides))
Cc1cc(C)c(NS(=O)(=O)c2ccc(NC(=O)c3ccco3)cc2)c(C)c1 [Compound 4] | 8.2 % free | 93.3 % remaining | 2.2 % free |  |  |  | 
Cc1cc(C)c(NS(=O)(=O)c2ccc(NC(=O)c3ccccn3)cc2)c(C)c1 [Compound 5] | 0.3 % free | 25.8 % remaining | 0.1 % free | 30 fold | does not elicit receptor activation |  | 
O=C(Nc1ccc(S(=O)(=O)Nc2ccccc2Cl)cc1)c1ccccn1 [Compound 8b] | 0.3 % free | 0.02 % remaining | 0.1 % free |  |  | 0.02 % remaining | 
O=C(Nc1ccc(S(=O)(=O)Nc2ccccc2Cl)cc1)c1nccs1 [Compound 9d] | 0.1 % free | 1.2 % remaining | 0.1 % free |  |  | 0.84 % remaining | 
CN(c1ccccc1Cl)S(=O)(=O)c1ccc(NC(=O)c2ccncn2)cc1 [Compound 9f] | 2.7 % free | 3.3 % remaining | 1.7 % free |  |  | 2.5 % remaining | 
CN(c1ccccc1Cl)S(=O)(=O)c1ccc(NC(=O)c2nccs2)cc1 [Compound 9g] | 37 % free | 0.08 % remaining | 0.5 % free |  |  | 0.1 % remaining | 
COc1ccccc1NS(=O)(=O)c1ccc(NC(=O)c2ccccn2)cc1OC [Compound 10] | 12.7 % free | 0.05 % remaining | 0.3 % free |  |  | 1.3 % remaining | 
O=C(Nc1ccc(S(=O)(=O)Nc2ccccc2Cl)c(Cl)c1)c1ccccn1 [Compound 11] |  | 0.02 % remaining |  |  |  | 0.63 % remaining | 
O=C(Nc1ccc(Cl)c(S(=O)(=O)Nc2ccccc2Cl)c1)c1ccccn1 [Compound 13] |  | 0.05 % remaining |  |  |  | 11.9 % remaining | 36 fold
